Assay results reported in ChEMBL document CHEMBL3045244, “Design and synthesis of novel piperazine unit condensed 2,6-diarylpiperidin-4-one derivatives as antituberculosis and antimicrobial agents” (2012).
In brackets after ≈: the same amount, converted by molar mass. Activity calls are given as the source filed them. The calls are words filed in the database; no cut-off is given here.

How the values were obtained:
Candida albicans [1] = assay: Antifungal activity against Candida albicans ATCC 3130 after 72 to 96 hr by two-fold serial dilution method; assay type: functional
Aspergillus niger [2] = assay: Antifungal activity against Aspergillus niger ATCC 591 after 72 to 96 hr by two-fold serial dilution method; assay type: functional
Rhizopus = assay: Antifungal activity against Rhizopus sp. ATCC 2920 after 72 to 96 hr by two-fold serial dilution method; assay type: functional
Aspergillus flavus [3] = assay: Antifungal activity against Aspergillus flavus ATCC 470 after 72 to 96 hr by two-fold serial dilution method; assay type: functional
Cryptococcus neoformans = assay: Antifungal activity against Cryptococcus neoformans ATCC 3315 after 72 to 96 hr by two-fold serial dilution method; assay type: functional
Klebsiella pneumoniae [4] = assay: Antibacterial activity against Klebsiella pneumoniae ATCC 15499 after 24 hr by two-fold serial dilution method; assay type: functional; settings: ATCC 15499, 24 h
[5] = test system: Mycobacterium tuberculosis; assay: Ratio of isoniazid MIC to compound MIC for Mycobacterium tuberculosis H37Rv ATCC 27294; assay type: functional
Staphylococcus aureus [6] = assay: Antibacterial activity against Staphylococcus aureus ATCC 25833 after 24 hr by two-fold serial dilution method; assay type: functional; settings: ATCC 25833, 24 h
[7] = test system: Mycobacterium tuberculosis; assay: Antituberculosis activity against Mycobacterium tuberculosis H37Rv ATCC 27294 after 21 days by BACTEC based radiometric respiratory technique; assay type: functional; settings: H37Rv ATCC 27294, 504 h
[8] = test system: Mycobacterium tuberculosis; assay: Ratio of rifampicin MIC to compound MIC for Mycobacterium tuberculosis H37Rv ATCC 27294; assay type: functional
Bacillus subtilis [9] = assay: Antibacterial activity against Bacillus subtilis ATCC 461 after 24 hr by two-fold serial dilution method; assay type: functional; settings: ATCC 461, 24 h
Escherichia coli = assay: Antibacterial activity against Escherichia coli ATCC 25840 after 24 hr by two-fold serial dilution method; assay type: functional; settings: ATCC 25840, 24 h
Salmonella typhi [10] = assay: Antibacterial activity against Salmonella enterica subsp. enterica serovar Typhi ATCC 24930 after 24 hr by two-fold serial dilution method; assay type: functional; settings: ATCC 24930, 24 h
Staphylococcus aureus [11] = assay: Antibacterial activity against Staphylococcus aureus ATCC 25833 at 200 ug/ml after 24 hr by two-fold serial dilution method; assay type: functional, organism-based
Aspergillus niger [12] = assay: Antifungal activity against Aspergillus niger ATCC 591 at 200 ug/ml after 72 to 96 hr by two-fold serial dilution method; assay type: functional, organism-based
Klebsiella pneumoniae [13] = assay: Antibacterial activity against Klebsiella pneumoniae ATCC 15499 at 200 ug/ml after 24 hr by two-fold serial dilution method; assay type: functional, organism-based
Aspergillus flavus [14] = assay: Antifungal activity against Aspergillus flavus ATCC 470 at 200 ug/ml after 72 to 96 hr by two-fold serial dilution method; assay type: functional, organism-based
Salmonella typhi [15] = assay: Antibacterial activity against Salmonella enterica subsp. enterica serovar Typhi ATCC 24930 at 200 ug/ml after 24 hr by two-fold serial dilution method; assay type: functional, organism-based
Candida albicans [16] = assay: Antifungal activity against Candida albicans ATCC 3130 at 200 ug/ml after 72 to 96 hr by two-fold serial dilution method; assay type: functional, organism-based
Bacillus subtilis [17] = assay: Antibacterial activity against Bacillus subtilis ATCC 461 at 200 ug/ml after 24 hr by two-fold serial dilution method; assay type: functional, organism-based

| Structure (SMILES) | MIC (Candida albicans [1]) [µg/mL] | MIC (Aspergillus niger [2]) [µg/mL] | MIC (Rhizopus) [µg/mL] | MIC (Aspergillus flavus [3]) [µg/mL] | MIC (Cryptococcus neoformans) [µg/mL] | MIC (Klebsiella pneumoniae [4]) [µg/mL] | Ratio [5] | MIC (Staphylococcus aureus [6]) [µg/mL] | MIC [7] [µg/mL] | Ratio [8] | MIC (Bacillus subtilis [9]) [µg/mL] | MIC (Escherichia coli) [µg/mL] | MIC (Salmonella typhi [10]) [µg/mL] | further results |
| --- | --- | --- | --- | --- | --- | --- | --- | --- | --- | --- | --- | --- | --- | --- |
| C[C@@H]1[C@H](O)[C@@H](C)/C=C/C=C/C=C/C=C/C=C/C=C/C=C/[C@H](O[C@@H]2O[C@H](C)[C@@H](O)[C@H](N)[C@@H]2O)C[C@@H]2O[C@](O)(C[C@@H](O)C[C@@H](O)[C@H](O)CC[C@@H](O)C[C@@H](O)CC(=O)O[C@H]1C)C[C@H](O)[C@H]2C(=O)O [AMPHOTERICIN B] | 25 (≈ 27.1 µM) | 50 (≈ 54.1 µM) | 25 (≈ 27.1 µM) | 50 (≈ 54.1 µM) | 25 (≈ 27.1 µM) | – | – | – | – | – | – | – | – | – |
| CCOC(=O)N1CCN(CC(=O)N2C(c3ccc(F)cc3)CC(=O)C(CC)C2c2ccc(F)cc2)CC1 (centres undefined) | 50 (≈ 97.4 µM) | 12.5 (≈ 24.3 µM) | 12.5 (≈ 24.3 µM) | 100 (≈ 195 µM) | 100 (≈ 195 µM) | 12.5 (≈ 24.3 µM) | 0.39 | 100 (≈ 195 µM) | 64 (≈ 125 µM) | 50 | 100 (≈ 195 µM) | 12.5 (≈ 24.3 µM) | 50 (≈ 97.4 µM) | – |
| CCOC(=O)N1CCN(CC(=O)N2C(c3ccc(C)cc3)CC(=O)C(C)C2c2ccc(C)cc2)CC1 (centres undefined) | 200 (≈ 407 µM) | 50 (≈ 102 µM) | 200 (≈ 407 µM) | 200 (≈ 407 µM) | 50 (≈ 102 µM) | 100 (≈ 203 µM) | – | – | > 256 | – | 100 (≈ 203 µM) | 50 (≈ 102 µM) | 200 (≈ 407 µM) | Activity (Staphylococcus aureus [11]): inactive |
| NNC(=O)c1ccncc1 [ISONIAZID] | – | – | – | – | – | – | – | – | 0.25 (≈ 1.82 µM) | – | – | – | – | – |
| CO[C@H]1/C=C/O[C@@]2(C)Oc3c(C)c(O)c4c(O)c(c(/C=N/N5CCN(C)CC5)c(O)c4c3C2=O)NC(=O)/C(C)=C\C=C\[C@H](C)[C@H](O)[C@@H](C)[C@@H](O)[C@@H](C)[C@H](OC(C)=O)[C@@H]1C [RIFAMPIN] | – | – | – | – | – | – | – | – | 32 (≈ 38.9 µM) | – | – | – | – | – |
| CCOC(=O)N1CCN(CC(=O)N2C(c3ccccc3)CC(=O)C(CC)C2c2ccccc2)CC1 (centres undefined) | 12.5 (≈ 26.2 µM) | – | 100 (≈ 209 µM) | 12.5 (≈ 26.2 µM) | 25 (≈ 52.3 µM) | – | 1.56 | 200 (≈ 419 µM) | 16 (≈ 33.5 µM) | 200 | 50 (≈ 105 µM) | 25 (≈ 52.3 µM) | 100 (≈ 209 µM) | Activity (Aspergillus niger [12]): inactive; Activity (Klebsiella pneumoniae [13]): inactive |
| CCOC(=O)N1CCN(CC(=O)N2C(c3ccc(Cl)cc3)C(C)C(=O)C(C)C2c2ccc(Cl)cc2)CC1 (centres undefined) | 100 (≈ 183 µM) | 50 (≈ 91.5 µM) | 25 (≈ 45.7 µM) | – | 200 (≈ 366 µM) | 50 (≈ 91.5 µM) | 1.56 | 50 (≈ 91.5 µM) | 16 (≈ 29.3 µM) | 200 | 50 (≈ 91.5 µM) | 100 (≈ 183 µM) | 25 (≈ 45.7 µM) | Activity (Aspergillus flavus [14]): inactive |
| CCOC(=O)N1CCN(CC(=O)N2C(c3cccc(F)c3)C(C)C(=O)C(C)C2c2cccc(F)c2)CC1 (centres undefined) | 100 (≈ 195 µM) | 6.25 (≈ 12.2 µM) | 12.5 (≈ 24.3 µM) | – | 25 (≈ 48.7 µM) | 100 (≈ 195 µM) | 1.56 | 6.25 (≈ 12.2 µM) | 16 (≈ 31.2 µM) | 200 | 12.5 (≈ 24.3 µM) | 50 (≈ 97.4 µM) | – | Activity (Aspergillus flavus [3]): inactive; Activity (Salmonella typhi [15]): inactive |
| CC1(C)S[C@@H]2[C@H](NC(=O)Cc3ccccc3)C(=O)N2[C@H]1C(=O)O [PENICILLIN G] | – | – | – | – | – | 25 (≈ 74.8 µM) | – | 50 (≈ 150 µM) | – | – | 12.5 (≈ 37.4 µM) | 12.5 (≈ 37.4 µM) | 50 (≈ 150 µM) | – |
| CCOC(=O)N1CCN(CC(=O)N2C(c3ccc(OC)cc3)C(C)C(=O)C(C)C2c2ccc(OC)cc2)CC1 (centres undefined) | – | 100 (≈ 186 µM) | 50 (≈ 93 µM) | 100 (≈ 186 µM) | 200 (≈ 372 µM) | 100 (≈ 186 µM) | 1.56 | 100 (≈ 186 µM) | 16 (≈ 29.8 µM) | 200 | 50 (≈ 93 µM) | 200 (≈ 372 µM) | 100 (≈ 186 µM) | – |
| CCOC(=O)N1CCN(CC(=O)N2C(c3ccccc3)CC(=O)C(C)C2c2ccccc2)CC1 (centres undefined) | – | 100 (≈ 216 µM) | 200 (≈ 431 µM) | 200 (≈ 431 µM) | 50 (≈ 108 µM) | 200 (≈ 431 µM) | – | 100 (≈ 216 µM) | > 256 | – | 50 (≈ 108 µM) | 50 (≈ 108 µM) | 100 (≈ 216 µM) | Activity (Candida albicans [16]): inactive |
| CCOC(=O)N1CCN(CC(=O)N2C(c3ccc(F)cc3)CC(=O)C(C)C2c2ccc(F)cc2)CC1 (centres undefined) | 25 (≈ 50 µM) | 100 (≈ 200 µM) | 100 (≈ 200 µM) | 25 (≈ 50 µM) | 25 (≈ 50 µM) | 12.5 (≈ 25 µM) | – | 50 (≈ 100 µM) | > 256 | – | 25 (≈ 50 µM) | 100 (≈ 200 µM) | 25 (≈ 50 µM) | – |
| CCOC(=O)N1CCN(CC(=O)N2C(c3cccc(F)c3)CC(=O)C(C)C2c2cccc(F)c2)CC1 (centres undefined) | 6.25 (≈ 12.5 µM) | 25 (≈ 50 µM) | 50 (≈ 100 µM) | 100 (≈ 200 µM) | 12.5 (≈ 25 µM) | 6.25 (≈ 12.5 µM) | – | 50 (≈ 100 µM) | > 256 | – | 100 (≈ 200 µM) | 6.25 (≈ 12.5 µM) | – | Activity (Salmonella typhi [15]): inactive |
| CCOC(=O)N1CCN(CC(=O)N2C(c3ccccc3)C(C)C(=O)C(C)C2c2ccccc2)CC1 (centres undefined) | 100 (≈ 209 µM) | 100 (≈ 209 µM) | 100 (≈ 209 µM) | 100 (≈ 209 µM) | 25 (≈ 52.3 µM) | 50 (≈ 105 µM) | – | 200 (≈ 419 µM) | – | – | – | 25 (≈ 52.3 µM) | – | Activity (Bacillus subtilis [17]): inactive |
